Source: ChEMBL document CHEMBL1201862, “PubChem BioAssay data set” (2004)
One block for each compound: values may come before it. Activity calls are given as the source filed them.

Assays:
[1] = biological target: T1, Intestinal-type alkaline phosphatase (Mus musculus, UniProt P24822); experiment: mouse intestinal alkaline phosphatase activators, dose response, biochemical, luminescence, uHTS hits (AID 488783); type: functional
[2] = biological target: T2, Intestinal-type alkaline phosphatase (Homo sapiens, UniProt P09923); experiment: activation of human intestinal alkaline phosphatase – biochemical, dose response (AID 488873); type: functional
[3] = biological target: T3, Alkaline phosphatase, tissue-nonspecific isozyme (Homo sapiens, UniProt P05186); experiment: activation of tissue-nonspecific alkaline phosphatase – biochemical, TNAP isozyme, mouse IAP uHTS hits, selectivity assay for mouse IAP activator project, dose response (AID 488880); type: functional
T3 sequence (P05186 whole entry): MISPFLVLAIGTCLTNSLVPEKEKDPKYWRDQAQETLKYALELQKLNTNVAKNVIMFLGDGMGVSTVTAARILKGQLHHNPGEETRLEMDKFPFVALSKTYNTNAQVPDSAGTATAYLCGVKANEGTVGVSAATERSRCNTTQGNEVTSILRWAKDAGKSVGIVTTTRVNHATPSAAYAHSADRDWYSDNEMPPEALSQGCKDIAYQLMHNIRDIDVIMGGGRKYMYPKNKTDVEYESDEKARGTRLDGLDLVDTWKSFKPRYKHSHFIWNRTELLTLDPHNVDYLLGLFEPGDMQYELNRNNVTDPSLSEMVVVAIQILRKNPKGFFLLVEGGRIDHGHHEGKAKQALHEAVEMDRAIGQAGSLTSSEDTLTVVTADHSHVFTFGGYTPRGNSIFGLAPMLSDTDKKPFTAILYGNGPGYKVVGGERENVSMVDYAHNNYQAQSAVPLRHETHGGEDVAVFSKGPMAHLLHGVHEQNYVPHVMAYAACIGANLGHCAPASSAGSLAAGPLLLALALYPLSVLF

[4] = biological target: Voltage-dependent T-type calcium channel subunit alpha-1H (Homo sapiens, UniProt O95180); experiment: human CACNA1H calcium influx blockade – cell-based, synthetic library set 2, HEK293 HH8, Fluo-4, SAR follow-up (AID 493023); type: functional
[5] = biological target: Disintegrin and metalloproteinase domain-containing protein 17 (Homo sapiens, UniProt P78536); experiment: exosite inhibitors of ADAM17, dose response, biochemical (AID 743260)
Troponin, cardiac muscle = Troponin, cardiac muscle (Homo sapiens, UniProt P19429+P45379+P63316); experiment: Fluorescence-based biochemical high throughput dose response assay for activators of the calcium sensitivity of cardiac Regulated Thin Filaments (RTF). [Related pubchem assays (depositor defined):AID493008, AID493018, AID504382, AID504383]; type: protein-complex assay
[6] = inhibition of ADAM10 peptide cleavage – biochemical, FRET peptide substrate, recombinant human ADAM10, selectivity assay for ADAM17 exosite inhibitor project, dose response (AID 743259);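 note: ADAM10 enzyme cleaving a FRET peptide substrate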
[7] = biological target: 72 kDa type IV collagenase (Homo sapiens, UniProt P08253); experiment: Dose Response validation of uHTS RPN11 inhibitor hits using a MMP-2 Fluorescence assay.; type: functional
[8] = biological target: 26S proteasome non-ATPase regulatory subunit 14 (Homo sapiens, UniProt O00487); experiment: inhibition of proteasome subunit RPN11 – biochemical, fluorescence polarization, uHTS hits, confirmation (AID 602368); type: functional
[9] = biological target: 1-phosphatidylinositol 4,5-bisphosphate phosphodiesterase gamma-1 (Homo sapiens, UniProt P19174); experiment: Counterscreen for inhibitors of phospholipase C isozymes (PLC-B3): Fluorescence-based biochemical high throughput dose response assay to identify inhibitors of phospholipase C isozymes (PLC-gamma1).
[10] = biological target: T3, Alkaline phosphatase, tissue-nonspecific isozyme; experiment: TNAP enzyme inhibition by screening hits, dose response, selectivity assay for mouse IAP inhibitor project, biochemical, human TNAP, uHTS hits (AID 488906); type: functional
ORF 73 = biological target: T4, ORF 73 (Human herpesvirus 8, UniProt O40947); experiment: KSHV LANA DNA-binding disruption – biochemical, fluorescence polarization, cherry-picked samples, dose response (AID 504725); parameters: species or system Human gammaherpesvirus 8;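 note: fluorescence polarization of a labeled DNA duplex reporting LANA DNA binding; potency is for inhibitors that block LANA binding to the DNA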
T4 sequence (O40947 whole entry): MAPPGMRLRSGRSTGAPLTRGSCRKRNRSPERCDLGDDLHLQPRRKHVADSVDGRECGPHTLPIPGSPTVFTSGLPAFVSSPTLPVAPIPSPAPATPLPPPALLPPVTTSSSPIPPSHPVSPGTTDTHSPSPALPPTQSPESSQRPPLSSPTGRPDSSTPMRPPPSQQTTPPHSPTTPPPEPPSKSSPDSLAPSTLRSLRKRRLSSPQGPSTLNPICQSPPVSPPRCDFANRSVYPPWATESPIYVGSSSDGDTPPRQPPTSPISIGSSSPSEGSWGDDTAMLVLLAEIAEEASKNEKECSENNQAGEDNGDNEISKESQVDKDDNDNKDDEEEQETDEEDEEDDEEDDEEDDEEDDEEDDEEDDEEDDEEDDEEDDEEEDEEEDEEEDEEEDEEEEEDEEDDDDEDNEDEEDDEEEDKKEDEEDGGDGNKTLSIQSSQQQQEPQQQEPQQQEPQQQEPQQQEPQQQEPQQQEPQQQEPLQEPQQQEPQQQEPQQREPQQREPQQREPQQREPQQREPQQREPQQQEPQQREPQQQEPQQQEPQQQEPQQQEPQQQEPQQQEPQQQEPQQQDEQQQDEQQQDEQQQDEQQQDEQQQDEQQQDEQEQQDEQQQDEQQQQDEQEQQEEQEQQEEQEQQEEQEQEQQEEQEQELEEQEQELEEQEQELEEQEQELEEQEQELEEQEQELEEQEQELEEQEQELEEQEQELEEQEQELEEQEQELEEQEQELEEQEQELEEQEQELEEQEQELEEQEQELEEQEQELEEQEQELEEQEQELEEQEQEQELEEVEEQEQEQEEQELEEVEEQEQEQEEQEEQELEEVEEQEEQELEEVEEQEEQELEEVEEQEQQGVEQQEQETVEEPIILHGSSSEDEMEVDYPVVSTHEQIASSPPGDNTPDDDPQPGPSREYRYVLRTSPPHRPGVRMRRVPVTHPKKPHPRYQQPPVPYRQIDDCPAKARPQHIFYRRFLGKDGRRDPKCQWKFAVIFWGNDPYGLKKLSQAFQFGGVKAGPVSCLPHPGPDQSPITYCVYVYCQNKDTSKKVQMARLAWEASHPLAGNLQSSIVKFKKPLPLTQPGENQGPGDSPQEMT

Prothrombin = Prothrombin (Bos taurus, UniProt P00735); experiment: thrombin protease inhibitors – biochemical, fluorescence polarization, uHTS hits, dose response (AID 602369); type: functional
Large T antigen = Large T antigen (Simian virus 40, UniProt P03070); type: functional, Betapolyomavirus macacae;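 note: Confirmatory-stage PubChem screen for compounds that inhibit SV40 T antigen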
[11] = biological target: 1-phosphatidylinositol 4,5-bisphosphate phosphodiesterase beta-3 (Homo sapiens, UniProt Q01970); experiment: Fluorescence-based biochemical high throughput dose response assay to identify inhibitors of phospholipase C isozymes (PLC-B3).
Cysteine protease ATG4B = biological target: T5, Cysteine protease ATG4B (Homo sapiens, UniProt Q9Y4P1); type: functional;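 note: Fluorescence-based dose-response confirmation assay measuring inhibition of ATG4B activity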
T5 sequence (Q9Y4P1 whole entry): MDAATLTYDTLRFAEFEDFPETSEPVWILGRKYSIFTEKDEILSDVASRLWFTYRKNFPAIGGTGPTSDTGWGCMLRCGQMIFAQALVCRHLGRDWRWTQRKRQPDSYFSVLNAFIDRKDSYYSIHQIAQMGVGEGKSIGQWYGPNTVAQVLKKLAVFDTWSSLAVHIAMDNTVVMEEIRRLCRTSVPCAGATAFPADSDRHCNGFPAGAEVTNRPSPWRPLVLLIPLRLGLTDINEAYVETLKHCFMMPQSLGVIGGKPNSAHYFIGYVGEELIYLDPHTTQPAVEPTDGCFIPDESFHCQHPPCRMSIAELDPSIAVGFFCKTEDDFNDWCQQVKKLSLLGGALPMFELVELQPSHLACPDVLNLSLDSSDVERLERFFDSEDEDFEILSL

[12] = biological target: T1, Intestinal-type alkaline phosphatase; experiment: PubChem AID 488785; type: functional
Phospholipase A2 = Phospholipase A2 (Homo sapiens, UniProt P04054); type: functional;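 note: confirmatory dose-response counterscreen on phospholipase A2, testing hits that came from an ultra-high-throughput screen for ATG4B inhibitors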
Ion channel NompC = Ion channel NompC (Danio rerio, UniProt Q7T1G6); experiment: Dose response cell-based high-throughput screening assay for agonists of the transient receptor potential channel N1 (TRPN1). [Related pubchem assays (depositor defined):AID1424, AID1448]; type: functional
Streptococcus = experiment: GAS UMAA2166 growth inhibition – luminescence, BacTiterGlo, counter-screen for streptokinase expression inhibitor project, dose response (AID 1915); type: functional, organism-based;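 note: potency for reduction of bacterial viability or growth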
[13] = tested on: Streptococcus sp. 'group A'; experiment: Streptococcus pyogenes SK(-)GAS viability under kanamycin – luminescence, BacTiterGlo, confirmation, counter-screen for streptokinase expression inhibitor project, dose response (AID 1900); type: functional, organism-based
Mucolipin-3 = biological target: T6, Mucolipin-3 (Homo sapiens, UniProt Q8TDD5); experiment: Fluorescence counterscreen assay for […] agonists: dose response cell-based high-throughput screening assay to identify agonists of the transient receptor potential channel ML3 (TRPML3). [Related pubchem assays: 1424, 1448 ]; type: functional
T6 sequence (Q8TDD5 whole entry): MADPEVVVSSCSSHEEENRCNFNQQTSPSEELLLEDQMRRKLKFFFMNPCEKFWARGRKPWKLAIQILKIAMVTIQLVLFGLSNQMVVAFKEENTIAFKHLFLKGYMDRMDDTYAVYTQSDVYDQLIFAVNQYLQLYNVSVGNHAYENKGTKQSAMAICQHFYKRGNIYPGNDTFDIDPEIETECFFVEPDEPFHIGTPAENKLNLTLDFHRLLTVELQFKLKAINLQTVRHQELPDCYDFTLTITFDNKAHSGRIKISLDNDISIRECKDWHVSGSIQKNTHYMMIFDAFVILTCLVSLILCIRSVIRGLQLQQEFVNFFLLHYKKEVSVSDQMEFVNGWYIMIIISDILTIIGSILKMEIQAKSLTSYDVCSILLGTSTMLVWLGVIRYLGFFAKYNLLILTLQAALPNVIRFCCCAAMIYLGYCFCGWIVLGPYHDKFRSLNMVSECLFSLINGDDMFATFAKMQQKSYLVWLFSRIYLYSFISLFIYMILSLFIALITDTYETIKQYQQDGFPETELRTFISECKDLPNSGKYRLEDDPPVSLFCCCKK

[14] = biological target: T2, Intestinal-type alkaline phosphatase; experiment: Dose Response confirmation of uHTS hits from a small molecule inhibitors of human intestinal alkaline phosphatase via a luminescent assay. [Related pubchem assays (depositor defined):AID2544, AID2574]; type: functional
[15] = biological target: T2, Intestinal-type alkaline phosphatase; experiment: human intestinal alkaline phosphatase activators, dose response, biochemical, luminescence, uHTS hits (AID 463120); type: functional

T2 sequence (P09923 whole entry): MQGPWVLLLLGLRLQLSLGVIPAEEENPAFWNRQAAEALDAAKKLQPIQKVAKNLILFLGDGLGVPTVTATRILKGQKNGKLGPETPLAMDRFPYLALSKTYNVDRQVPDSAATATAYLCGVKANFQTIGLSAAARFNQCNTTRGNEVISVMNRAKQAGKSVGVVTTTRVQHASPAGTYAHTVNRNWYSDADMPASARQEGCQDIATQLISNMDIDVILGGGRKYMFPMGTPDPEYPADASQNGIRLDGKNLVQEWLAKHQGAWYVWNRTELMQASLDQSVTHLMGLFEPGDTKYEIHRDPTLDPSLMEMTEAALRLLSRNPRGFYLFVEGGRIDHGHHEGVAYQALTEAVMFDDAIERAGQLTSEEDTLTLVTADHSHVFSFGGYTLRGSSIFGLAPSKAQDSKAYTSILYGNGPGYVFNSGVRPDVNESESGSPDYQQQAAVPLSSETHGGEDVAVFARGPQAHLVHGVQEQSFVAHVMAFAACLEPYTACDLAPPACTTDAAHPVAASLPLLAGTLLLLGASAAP
Sequence of Ion channel NompC (Q7T1G6 whole entry): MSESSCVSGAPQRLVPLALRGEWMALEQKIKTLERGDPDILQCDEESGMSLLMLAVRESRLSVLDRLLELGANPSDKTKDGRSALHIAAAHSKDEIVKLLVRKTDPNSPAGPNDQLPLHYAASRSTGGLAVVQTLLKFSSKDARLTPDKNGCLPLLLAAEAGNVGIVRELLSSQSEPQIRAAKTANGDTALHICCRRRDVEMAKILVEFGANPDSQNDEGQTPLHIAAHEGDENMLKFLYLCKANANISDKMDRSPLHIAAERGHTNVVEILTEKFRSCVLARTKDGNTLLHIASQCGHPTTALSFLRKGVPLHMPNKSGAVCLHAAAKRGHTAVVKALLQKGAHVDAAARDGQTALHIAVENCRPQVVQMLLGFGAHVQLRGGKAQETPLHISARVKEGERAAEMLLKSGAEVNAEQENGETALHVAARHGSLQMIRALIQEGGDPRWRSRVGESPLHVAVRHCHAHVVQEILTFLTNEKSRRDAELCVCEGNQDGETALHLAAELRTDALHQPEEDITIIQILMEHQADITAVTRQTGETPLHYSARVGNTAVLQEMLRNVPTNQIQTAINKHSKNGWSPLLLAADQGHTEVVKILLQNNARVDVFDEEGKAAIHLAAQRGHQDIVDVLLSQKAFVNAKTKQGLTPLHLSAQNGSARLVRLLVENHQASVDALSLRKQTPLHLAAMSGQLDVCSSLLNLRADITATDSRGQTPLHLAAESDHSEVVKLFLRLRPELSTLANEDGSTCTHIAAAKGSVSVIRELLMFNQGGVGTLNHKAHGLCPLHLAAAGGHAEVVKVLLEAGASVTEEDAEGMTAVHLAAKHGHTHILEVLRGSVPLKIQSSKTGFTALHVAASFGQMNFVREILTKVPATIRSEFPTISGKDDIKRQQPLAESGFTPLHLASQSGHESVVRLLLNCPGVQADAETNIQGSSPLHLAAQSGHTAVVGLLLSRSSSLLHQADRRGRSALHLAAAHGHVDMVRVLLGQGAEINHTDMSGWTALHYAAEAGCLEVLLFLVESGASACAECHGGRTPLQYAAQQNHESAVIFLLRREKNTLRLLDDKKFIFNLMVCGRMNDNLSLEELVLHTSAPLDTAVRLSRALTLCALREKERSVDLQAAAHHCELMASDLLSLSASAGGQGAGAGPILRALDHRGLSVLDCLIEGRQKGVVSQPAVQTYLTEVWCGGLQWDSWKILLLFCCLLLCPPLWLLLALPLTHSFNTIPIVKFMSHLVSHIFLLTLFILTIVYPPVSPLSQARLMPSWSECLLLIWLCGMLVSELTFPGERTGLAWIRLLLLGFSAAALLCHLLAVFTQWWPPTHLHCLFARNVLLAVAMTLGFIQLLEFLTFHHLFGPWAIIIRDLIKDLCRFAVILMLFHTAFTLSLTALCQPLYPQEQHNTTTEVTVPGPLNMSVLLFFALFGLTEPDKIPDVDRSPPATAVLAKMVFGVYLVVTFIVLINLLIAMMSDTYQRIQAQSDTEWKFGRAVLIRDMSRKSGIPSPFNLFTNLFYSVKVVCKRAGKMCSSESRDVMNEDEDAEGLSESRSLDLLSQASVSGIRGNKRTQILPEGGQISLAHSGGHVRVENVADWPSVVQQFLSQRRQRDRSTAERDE
T1 sequence (P24822 whole entry): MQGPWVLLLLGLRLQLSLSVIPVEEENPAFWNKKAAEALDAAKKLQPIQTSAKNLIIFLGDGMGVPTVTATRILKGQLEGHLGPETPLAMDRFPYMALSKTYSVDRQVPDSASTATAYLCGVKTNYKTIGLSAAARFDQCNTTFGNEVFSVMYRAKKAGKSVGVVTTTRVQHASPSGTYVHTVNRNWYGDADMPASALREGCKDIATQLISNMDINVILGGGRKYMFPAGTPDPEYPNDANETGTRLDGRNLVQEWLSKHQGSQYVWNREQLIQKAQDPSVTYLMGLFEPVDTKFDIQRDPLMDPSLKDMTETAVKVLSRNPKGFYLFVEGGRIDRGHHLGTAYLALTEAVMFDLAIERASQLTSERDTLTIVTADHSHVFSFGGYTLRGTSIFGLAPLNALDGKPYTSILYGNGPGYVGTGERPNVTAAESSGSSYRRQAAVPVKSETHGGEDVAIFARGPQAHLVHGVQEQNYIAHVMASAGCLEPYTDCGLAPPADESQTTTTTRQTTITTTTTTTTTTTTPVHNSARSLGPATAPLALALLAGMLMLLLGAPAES
Sequence of Voltage-dependent T-type calcium channel subunit alpha-1H (O95180 whole entry, the tested form may be a part): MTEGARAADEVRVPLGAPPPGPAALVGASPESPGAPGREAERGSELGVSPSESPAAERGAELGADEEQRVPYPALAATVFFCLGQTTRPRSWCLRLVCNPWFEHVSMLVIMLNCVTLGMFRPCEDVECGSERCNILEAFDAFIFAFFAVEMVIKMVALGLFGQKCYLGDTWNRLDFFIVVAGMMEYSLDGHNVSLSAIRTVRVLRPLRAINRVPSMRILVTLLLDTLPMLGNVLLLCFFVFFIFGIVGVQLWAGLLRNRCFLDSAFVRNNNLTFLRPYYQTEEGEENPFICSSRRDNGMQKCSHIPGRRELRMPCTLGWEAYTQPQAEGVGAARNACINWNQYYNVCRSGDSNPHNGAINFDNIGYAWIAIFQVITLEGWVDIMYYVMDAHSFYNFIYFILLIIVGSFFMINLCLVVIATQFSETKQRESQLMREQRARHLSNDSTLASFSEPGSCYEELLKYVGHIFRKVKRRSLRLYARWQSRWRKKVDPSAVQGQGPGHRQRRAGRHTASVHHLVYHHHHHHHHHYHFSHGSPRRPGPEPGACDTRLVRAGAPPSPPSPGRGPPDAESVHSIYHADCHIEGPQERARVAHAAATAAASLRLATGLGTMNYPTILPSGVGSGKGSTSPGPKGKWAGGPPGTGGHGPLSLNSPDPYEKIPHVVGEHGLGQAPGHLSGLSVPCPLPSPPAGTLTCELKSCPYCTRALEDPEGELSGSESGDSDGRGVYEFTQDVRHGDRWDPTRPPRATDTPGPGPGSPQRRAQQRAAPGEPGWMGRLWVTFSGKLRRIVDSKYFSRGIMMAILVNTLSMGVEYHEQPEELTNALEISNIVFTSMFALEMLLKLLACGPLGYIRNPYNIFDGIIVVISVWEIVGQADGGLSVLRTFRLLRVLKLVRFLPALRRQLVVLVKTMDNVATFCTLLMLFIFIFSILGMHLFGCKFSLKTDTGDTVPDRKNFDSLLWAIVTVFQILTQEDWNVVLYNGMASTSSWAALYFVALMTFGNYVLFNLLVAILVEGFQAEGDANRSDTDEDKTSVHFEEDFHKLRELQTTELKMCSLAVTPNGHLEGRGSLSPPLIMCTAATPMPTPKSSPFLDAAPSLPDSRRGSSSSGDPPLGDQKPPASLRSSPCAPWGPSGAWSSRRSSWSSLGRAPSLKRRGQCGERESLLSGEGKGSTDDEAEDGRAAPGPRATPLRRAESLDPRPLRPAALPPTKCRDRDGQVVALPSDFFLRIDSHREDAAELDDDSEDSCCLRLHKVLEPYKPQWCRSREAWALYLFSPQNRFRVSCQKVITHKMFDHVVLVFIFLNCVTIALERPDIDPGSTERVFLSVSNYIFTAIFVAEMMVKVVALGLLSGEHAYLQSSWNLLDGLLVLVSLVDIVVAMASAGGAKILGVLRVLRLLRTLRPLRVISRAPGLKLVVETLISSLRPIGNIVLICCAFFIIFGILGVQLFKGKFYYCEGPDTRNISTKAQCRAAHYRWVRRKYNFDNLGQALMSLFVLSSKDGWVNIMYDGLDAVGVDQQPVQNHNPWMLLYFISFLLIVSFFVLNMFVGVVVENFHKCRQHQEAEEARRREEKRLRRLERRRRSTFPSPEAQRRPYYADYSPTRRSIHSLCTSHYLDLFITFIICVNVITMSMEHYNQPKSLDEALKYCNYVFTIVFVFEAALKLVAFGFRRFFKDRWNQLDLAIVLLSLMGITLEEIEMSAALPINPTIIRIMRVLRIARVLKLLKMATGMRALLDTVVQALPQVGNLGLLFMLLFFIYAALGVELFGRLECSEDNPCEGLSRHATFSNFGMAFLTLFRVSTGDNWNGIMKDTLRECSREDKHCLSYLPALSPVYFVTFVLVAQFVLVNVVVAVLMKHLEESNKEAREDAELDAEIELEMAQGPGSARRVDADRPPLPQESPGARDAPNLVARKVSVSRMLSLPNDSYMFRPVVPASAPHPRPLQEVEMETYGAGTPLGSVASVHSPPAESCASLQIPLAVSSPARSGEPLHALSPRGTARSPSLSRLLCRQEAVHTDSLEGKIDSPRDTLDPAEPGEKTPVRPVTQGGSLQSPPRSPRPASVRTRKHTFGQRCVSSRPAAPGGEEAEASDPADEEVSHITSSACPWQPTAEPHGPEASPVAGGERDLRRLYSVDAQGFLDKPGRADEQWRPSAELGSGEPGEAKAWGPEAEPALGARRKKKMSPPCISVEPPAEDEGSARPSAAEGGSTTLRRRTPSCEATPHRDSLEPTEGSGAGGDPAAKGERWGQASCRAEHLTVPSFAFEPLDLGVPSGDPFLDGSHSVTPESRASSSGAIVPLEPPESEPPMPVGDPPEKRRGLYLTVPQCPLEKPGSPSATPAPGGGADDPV

SMILES: COc1ccc(/N=C2\SC(C(N)=O)CC(=O)N2CCc2ccc(OC)c(OC)c2)cc1 (stereo not drawn)
EC50 [1]: 13.3 µM (active)
EC50 [2]: 59.6 µM (active)
EC50 [3]: 48.9 µM (active)

SMILES: CCC(C(=O)O)N1C(=O)/C(=C/c2cccn2C)SC1=S (stereo not drawn)
IC50 [5]: > 23.2 µM (inactive)
EC50 (Troponin, cardiac muscle): 14.4 µM (inactive)
IC50 [6]: 12.5 µM (inactive)

SMILES: O=C(CN1C(=O)/C(=C/c2ccco2)SC1=S)Nc1ccc(C(=O)O)c(O)c1
IC50 [7]: 2.32 µM (active)
IC50 [8]: 19.4 µM (active)
IC50 [9]: > 122 µM (inactive)
IC50 [10]: > 100 µM (inactive)
AC50 (ORF 73): 76.1 µM (active)
IC50 (Prothrombin): 45.8 µM (active)
IC50 (Large T antigen): 76.9 µM (active)
IC50 [11]: > 122 µM (inactive)
EC50 [2]: > 100 µM (inactive)
IC50 (Cysteine protease ATG4B): 6.89 µM (active)
IC50 [12]: 9.42 µM (active)
IC50 (Phospholipase A2): 16.8 µM (active)

SMILES: CCOc1cc(/C=C(\C#N)c2nc(-c3cccs3)c(NC(C)=O)s2)ccc1O
EC50 (Ion channel NompC): 13.4 µM (inactive)
EC50 (Streptococcus): 2.02 µM (active)
EC50 [13]: 628 nM (active)
EC50 (Mucolipin-3): > 29.9 µM (not active)

SMILES: CC(C)S(=O)(=O)c1csc(NC(=O)Nc2ccc(Cl)cc2)c1
EC50 (Ion channel NompC): > 29.9 µM (inactive)
EC50 (Mucolipin-3): > 29.9 µM (not active)

Now from value to compound:

EC50 [4]: 10 µM (active)
SMILES: CC(C)(C)CCN1CCC[C@H](NC(=O)c2cc(Cl)cc(Cl)c2)C1

IC50 [14]: > 100 µM (inactive)
EC50 [15]: > 100 µM (inactive)
SMILES: CC(C)CCNC(=O)C1CCN(C(=O)N(C)C)CC1

EC50 [4]: 10 µM (active)
SMILES: O=C(N[C@H]1CCCN(Cc2ccccc2)C1)c1ccc(Cl)cc1Cl
